Measurements published in ChEMBL document CHEMBL1201862, “PubChem BioAssay data set” (2004).
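Grown in 96-well plates, cells were treated for 48 hours with each compound at five concentrations. Insufficient inhibition: endpoint recorded as highest concentration tested. Abbreviation: GI50, concentration required for 50% inhibition of growth.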 Activity calls are given as the source filed them. No stated cut-off is given here; in the data, active = GI50 up to about 1.1 µM and inactive = higher.

Experiments:
Test in all cases: growth of human tumour cells (NCI), 48 h
A549 = tested on: A549
ACHN = tested on: ACHN
HCC 2998 = tested on: HCC 2998
HCT-15 = tested on: HCT-15
HL-60 = tested on: HL-60
HOP-92 = tested on: HOP-92
IGROV-1 = tested on: IGROV-1
K562 = tested on: K562
KM12 = tested on: KM12
NCI-H226 = tested on: NCI-H226
OVCAR-3 = tested on: OVCAR-3
OVCAR-5 = tested on: OVCAR-5
OVCAR-8 = tested on: OVCAR-8
SK-MEL-2 = tested on: SK-MEL-2
SNB-78 = tested on: SNB-78
BT-549 = tested on: BT-549
MCF7 = tested on: MCF7
MDA-MB-435 = tested on: MDA-MB-435
MDA-N = tested on: MDA-N
PC-3 = tested on: PC-3

## COC(=O)CC1CC2(C(=O)OC)c3[nH]c4ccccc4c3CCN2C1=O (stereo not given)
A549
  GI50: > 100 µM (inactive)
ACHN
  GI50: > 100 µM (inactive)
HCC 2998
  GI50: > 100 µM (inactive)
HCT-15
  GI50: > 100 µM
HL-60
  GI50: > 100 µM (inactive)
HOP-92
  GI50: > 100 µM (inactive)
IGROV-1
  GI50: > 100 µM (inactive)
K562
  GI50: > 100 µM (inactive)
KM12
  GI50: > 100 µM (inactive)
NCI-H226
  GI50: > 100 µM (inactive)
OVCAR-3
  GI50: > 100 µM (inactive)
OVCAR-5
  GI50: > 100 µM (inactive)
OVCAR-8
  GI50: > 100 µM (inactive)
SK-MEL-2
  GI50: > 100 µM (inactive)
SNB-78
  GI50: > 100 µM (inactive)

## CC1(S)CC2C(CC1Sc1ccccc1)C2(C)C (stereo not given)
A549
  GI50: > 100 µM (inactive)
ACHN
  GI50: > 100 µM (inactive)
HCC 2998
  GI50: > 100 µM (inactive)
HCT-15
  GI50: > 100 µM
HL-60
  GI50: > 100 µM (inactive)
HOP-92
  GI50: > 100 µM (inactive)
IGROV-1
  GI50: > 100 µM (inactive)
K562
  GI50: > 100 µM (inactive)
KM12
  GI50: > 100 µM (inactive)
NCI-H226
  GI50: > 100 µM (inactive)
OVCAR-3
  GI50: > 100 µM (inactive)
OVCAR-5
  GI50: > 100 µM (inactive)
OVCAR-8
  GI50: > 100 µM (inactive)
SK-MEL-2
  GI50: > 100 µM (inactive)
SNB-78
  GI50: > 100 µM (inactive)

## N#CC(NNC(=O)c1ccccc1O)c1c(O)ccc2ccccc12 (stereo not given)
A549
  GI50: 2.94 µM (inactive)
ACHN
  GI50: 5.04 µM (inactive)
BT-549
  GI50: 7.11 µM (inactive)
HCC 2998
  GI50: 9.55 µM (inactive)
HCT-15
  GI50: 2.89 µM
HL-60
  GI50: 0.713 µM (active)
HOP-92
  GI50: 5.71 µM (inactive)
IGROV-1
  GI50: 4.4 µM (inactive)
K562
  GI50: 2.9 µM (inactive)
KM12
  GI50: 4.84 µM (inactive)
MCF7
  GI50: 4.5 µM (inactive)
MDA-MB-435
  GI50: 8.53 µM (inactive)
MDA-N
  GI50: 5.16 µM (inactive)
NCI-H226
  GI50: 3.71 µM (inactive)
OVCAR-3
  GI50: 2.54 µM (inactive)
OVCAR-5
  GI50: 4.38 µM (inactive)
OVCAR-8
  GI50: 3.16 µM (inactive)
PC-3
  GI50: 4.03 µM (inactive)
SK-MEL-2
  GI50: 3.72 µM (inactive)
SNB-78
  GI50: 19.8 µM (inactive)

## CCc1cccc(C)c1NC(=S)NC(=O)c1ccccc1C(=O)NC(=S)Nc1c(C)cccc1CC
A549
  GI50: 90.4 µM (inactive)
ACHN
  GI50: > 100 µM (inactive)
HCC 2998
  GI50: 90.6 µM (inactive)
HCT-15
  GI50: > 100 µM
HL-60
  GI50: 40.6 µM (inactive)
HOP-92
  GI50: 19.1 µM (inactive)
IGROV-1
  GI50: 93.8 µM (inactive)
K562
  GI50: 38.9 µM (inactive)
KM12
  GI50: 77.1 µM (inactive)
NCI-H226
  GI50: 50.4 µM (inactive)
OVCAR-3
  GI50: 23.8 µM (inactive)
OVCAR-5
  GI50: > 100 µM (inactive)
OVCAR-8
  GI50: 95.1 µM (inactive)
SK-MEL-2
  GI50: > 100 µM (inactive)
SNB-78
  GI50: > 100 µM (inactive)

## CC1(C)C(=O)CCC(=O)C(C)(C)C2=CC=C(O2)C(C)(C)C(=O)CCC(=O)C(C)(C)C2=CC=C1O2
A549
  GI50: > 100 µM (inactive)
ACHN
  GI50: > 100 µM (inactive)
HCC 2998
  GI50: > 100 µM (inactive)
HCT-15
  GI50: > 100 µM
HL-60
  GI50: > 100 µM (inactive)
HOP-92
  GI50: 76.9 µM (inactive)
IGROV-1
  GI50: > 100 µM (inactive)
K562
  GI50: > 100 µM (inactive)
KM12
  GI50: > 100 µM (inactive)
NCI-H226
  GI50: > 100 µM (inactive)
OVCAR-3
  GI50: > 100 µM (inactive)
OVCAR-5
  GI50: > 100 µM (inactive)
OVCAR-8
  GI50: > 100 µM (inactive)
SK-MEL-2
  GI50: > 100 µM (inactive)
SNB-78
  GI50: > 100 µM (inactive)

## CSc1cc(C(C)(C)C)ccc1C(O)c1ccc(C(C)(C)C)cc1SC
A549
  GI50: 10.6 µM (inactive)
ACHN
  GI50: 11.5 µM (inactive)
HCC 2998
  GI50: 18.2 µM (inactive)
HCT-15
  GI50: 7.83 µM
HL-60
  GI50: 4.91 µM (inactive)
HOP-92
  GI50: 14.5 µM (inactive)
IGROV-1
  GI50: 10.1 µM (inactive)
K562
  GI50: 7.14 µM (inactive)
KM12
  GI50: 11.5 µM (inactive)
NCI-H226
  GI50: 12.9 µM (inactive)
OVCAR-3
  GI50: 12.4 µM (inactive)
OVCAR-5
  GI50: 14 µM (inactive)
OVCAR-8
  GI50: 11.4 µM (inactive)
SK-MEL-2
  GI50: 15.1 µM (inactive)
SNB-78
  GI50: 15.6 µM (inactive)

## Cn1c(=O)c(C(c2ccccc2)c2c(O)c3ccccc3n(C)c2=O)c(O)c2ccccc21
A549
  GI50: > 100 µM (inactive)
ACHN
  GI50: > 100 µM (inactive)
HCC 2998
  GI50: > 100 µM (inactive)
HCT-15
  GI50: > 10 µM
HL-60
  GI50: 32.4 µM (inactive)
HOP-92
  GI50: > 100 µM (inactive)
IGROV-1
  GI50: > 100 µM (inactive)
K562
  GI50: > 100 µM (inactive)
KM12
  GI50: > 100 µM (inactive)
NCI-H226
  GI50: 0.0283 µM (active)
OVCAR-3
  GI50: > 100 µM (inactive)
OVCAR-5
  GI50: 23.2 µM (inactive)
OVCAR-8
  GI50: > 100 µM (inactive)
SK-MEL-2
  GI50: > 100 µM (inactive)
SNB-78
  GI50: > 100 µM (inactive)

## CC(C)[Si](OCC1CC(C#N)OC(C)(C)O1)(C(C)C)C(C)C (stereo not given)
A549
  GI50: 30.8 µM (inactive)
ACHN
  GI50: 16 µM (inactive)
HCC 2998
  GI50: 21.2 µM (inactive)
HCT-15
  GI50: 27.8 µM
HL-60
  GI50: 13 µM (inactive)
HOP-92
  GI50: 21.7 µM (inactive)
IGROV-1
  GI50: 28.2 µM (inactive)
K562
  GI50: 19 µM (inactive)
KM12
  GI50: 17.5 µM (inactive)
NCI-H226
  GI50: 19.1 µM (inactive)
OVCAR-3
  GI50: 15.6 µM (inactive)
OVCAR-5
  GI50: 44 µM (inactive)
OVCAR-8
  GI50: 21.1 µM (inactive)
SK-MEL-2
  GI50: 16.2 µM (inactive)
SNB-78
  GI50: 20.5 µM (inactive)

## Cc1cccc2cc3cccc(C(=O)NCCN(C)C)c3nc12
A549
  GI50: 0.0171 µM (active)
ACHN
  GI50: 0.0257 µM (active)
HCC 2998
  GI50: 0.181 µM (active)
HCT-15
  GI50: 0.0993 µM
HL-60
  GI50: 0.028 µM (active)
HOP-92
  GI50: 0.185 µM (active)
IGROV-1
  GI50: 0.38 µM (active)
K562
  GI50: 0.203 µM (active)
KM12
  GI50: 0.397 µM (active)
NCI-H226
  GI50: 0.0638 µM (active)
OVCAR-3
  GI50: 0.366 µM (active)
OVCAR-5
  GI50: 0.292 µM (active)
OVCAR-8
  GI50: 0.0925 µM (active)
SK-MEL-2
  GI50: 0.579 µM (active)
SNB-78
  GI50: 0.614 µM (active)

## COc1ccc(NCc2cc(OC)cc(OC)c2)cc1
A549
  GI50: 17.6 µM (inactive)
ACHN
  GI50: 45.6 µM (inactive)
HCC 2998
  GI50: 12.1 µM (inactive)
HCT-15
  GI50: 10.3 µM
HL-60
  GI50: 7.6 µM (inactive)
HOP-92
  GI50: 78.5 µM (inactive)
IGROV-1
  GI50: 22.5 µM (inactive)
K562
  GI50: 3.88 µM (inactive)
KM12
  GI50: 5.7 µM (inactive)
NCI-H226
  GI50: 38.3 µM (inactive)
OVCAR-3
  GI50: 11.9 µM (inactive)
OVCAR-5
  GI50: 24.7 µM (inactive)
OVCAR-8
  GI50: 49.1 µM (inactive)
SK-MEL-2
  GI50: 7 µM (inactive)
SNB-78
  GI50: 19.6 µM (inactive)
